In brackets after ≈: the same amount, converted by molar mass.
How the values were obtained:
ICR male mice = experiment: Test on increase of white blood cell (hematological test); format: in vivo; details: 3 mg/kg i.p. once a day for 14 days, blood collected on the day following the final administration
Method: The experimental methods and results are described below. A solution of a compound of the present invention in ethanol was diluted with l% Tween 80 (registered Trade Mark) and the solution was intraperitoneally administered to ICR male mice of 6-7 weeks old once a day for 14 days. On the day following the final administration, the blood was collected by cardiac puncture with Anglot® (containing heparin and EDTA) as an anticoagulant. The blood was diluted with Seruento (registered Trade Mark), and the numbers of white blood cells and red blood cells were counted by a Micro Cell Counter (model CC-120).

Acute toxicity = details: in vivo, iv; intravenously
[1] = test system: cells originated from human mouth tumour (KB-cells); experiment: Test on inhibition of proliferation using cells originated from human mouth tumour (KB-cells); format: cell-based; details: 96 h, stationary culture at 37°C for 4 days, Trypan Blue staining, surviving cell number relative to control
Method: The experimental methods and the results are described below. Test on Inhibition of Proliferation Using Cells Originated
. The cells originated from human mouth tumour (KB-cells) were added to Eagle's MEM culture solution containing 10% bovine fetal serum, the number of cells in the culture solution was adjusted to 1 ×10^5 cells/ml, a solution in ethanol of compounds of the present invention was added to give a concentration of 5 µg/ml or below and the mixture was subjected to stationary culture at 37°C for 4 days. As a control, a culture solution containing 0.1% of ethanol was similarly cultured. After the culture, the cells were stained by the Trypan Blue staining method, and the surviving cell number was measured to determine the IC50 value from the degree of inhibition relative to the control.

Row | SMILES | IC50 [1] [µg/mL] | other results
1 | CCCCC[C@H](O)/C=C/[C@H]1C(=O)C=C[C@@H]1C/C=C\CCCC(=O)NCCCNC(=O)CCC/C=C\C[C@H]1C=CC(=O)[C@@H]1/C=C/[C@@H](O)CCCCC [Example 1(e), N,N'-bis[(5Z,13E)-(15S)-11-oxo-15-hydroxy-prosta-5,9,13-trienoyl]trimethylenediamine] | – | RBC (x10^4/mm^3) (ICR male mice; red blood cells): 793 ± 22.5 (p <0.001) x10^4/mm^3; WBC (x10^2/mm^3) (ICR male mice; white blood cells): 158 ± 17.0 (p <0.05) x10^2/mm^3; LD50 (Acute toxicity): > 100 mg/kg
2 | CCCCC[C@H](O)/C=C/[C@H]1C(=O)C=C[C@@H]1C/C=C\CCCC(=O)NCCCCNC(=O)CCC/C=C\C[C@H]1C=CC(=O)[C@@H]1/C=C/[C@@H](O)CCCCC [Example 1(f)] | 1.17 (≈ 1.62 µM) | –
3 | CCCCC[C@H](O)/C=C/[C@H]1C(=O)C=C[C@@H]1C/C=C\CCCC(=O)NCCOC(=O)CCC/C=C\C[C@H]1C=CC(=O)[C@@H]1/C=C/[C@@H](O)CCCCC [Example 1(g)] | 1.8 (≈ 2.59 µM) | –
4 | CCCCC[C@H](O)/C=C/[C@H]1C(=O)C=C[C@@H]1C/C=C\CCCC(=O)OCCOC(=O)CCC/C=C\C[C@H]1C=CC(=O)[C@@H]1/C=C/[C@@H](O)CCCCC [Example 1(h)] | < 1 | –
5 | CCCCC[C@H](O)/C=C/[C@H]1C(=O)C=C[C@@H]1C/C=C\CCCC(=O)NCCNC(=O)CCC/C=C\C[C@H]1C=CC(=O)[C@@H]1/C=C/[C@@H](O)CCCCC [Example 1] | 0.87 (≈ 1.26 µM) | –
6 | CCCCC[C@H](O)/C=C/[C@H]1C(=O)C[C@H](O)[C@@H]1C/C=C\CCCC(=O)NCCCNC(=O)CCC/C=C\C[C@H]1[C@@H](O)CC(=O)[C@@H]1/C=C/[C@@H](O)CCCCC [Example 3(a)] | 1.9 (≈ 2.56 µM) | –
7 | CCCCCC=CC=C1C(=O)C=CC1CC=CCCCC(=O)NCCNC(=O)CCCC=CCC1C=CC(=O)C1=CC=CCCCCC (stereo not drawn) [Example 4] | 0.47 (≈ 0.715 µM) | –
